Numbered stars: 1 amine (or outer) side, 2 acyl side, 3 side chain; on linkers, the order of the positions; unused ones are H or OH. Bridge positions count the residues as written; N and C are the ends. Square brackets hold non-standard residues; d marks the D form. Peptide text beside a SMILES is read from it. * marks the point of attachment. hPhe(3-Cl-4-CF3) = N[C@@H](CCc1ccc(C(F)(F)F)c(Cl)c1)C(=O)O; NMePhe(4-CF3) = CN[C@@H](Cc1ccc(C(F)(F)F)cc1)C(=O)O; NMePhe(4-Me) = CN[C@@H](Cc1ccc(C)cc1)C(=O)O; X3 = O=C(CN(C1CC2(C1)CC(F)(F)C2)[*:1])[*:2]; NMeAla(cPent) = CN[C@@H](CC1CCCC1)C(=O)O; NMeGly(cPent) = CN[C@H](C(=O)O)C1CCCC1; NMeCha = CN[C@@H](CC1CCCCC1)C(=O)O; Hyp = O=C(O)[C@@H]1C[C@@H](O)CN1; NMeChg = CN[C@H](C(=O)O)C1CCCCC1; NMeF = CN[C@@H](Cc1ccccc1)C(=O)O; NMeI = CC[C@H](C)[C@H](NC)C(=O)O; NMeD = CN[C@@H](CC(=O)O)C(=O)O; NMeL = CN[C@@H](CC(C)C)C(=O)O; NMeNle = CCCC[C@H](NC)C(=O)O; NMeV = CN[C@H](C(=O)O)C(C)C; d(β3hA) = C[C@@H](N)CC(=O)O; Morpholide = C1CN(*)CCO1; NMeA = CN[C@@H](C)C(=O)O; Piperidide = C1CCN(*)CC1; Pyrrolidide = C1CCN(*)C1; Ac5c = NC1(C(=O)O)CCCC1; Aze = O=C(O)[C@@H]1CCN1; Sar = CNCC(=O)O
Experiments:
[1] = biological target: protein-protein interaction between Kras and SOS1 (biotin-tagged human Kras loaded with GDP, His-tagged human SOS1) (Homo sapiens (Human), UniProt P01116, G12D); experiment: Protein-protein interaction inhibition between Kras and SOS1 (KrasG12D-SOS PPI) using AlphaScreen; format: biochemical; conditions: AlphaScreen; biotin-tagged human Kras loaded with GDP, His-tagged human SOS1; read-out: KRAS G12D-SOS PPI IC50;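 further: kras produced in E. coli, Ni-coupled donor beads and streptavidin acceptor beads, excitation 680 nm with emission detected at 520–620 nm via singlet oxygen transfer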
[2] = system: Human pancreatic cancer cell line AsPC-1 (G12D mutation Kras); experiment: AsPC-1 cell growth inhibition (AsPC-1 CGI); format: cell-based; conditions: read-out: AsPC-1 cell growth inhibition, 50% growth inhibitory concentration (IC50 value); 96 hours, CellTiter-Glo, values classified in ranges
Protocol: Test compounds were serially dilated with dimethyl sulfoxide, and 200 nL was then dispensed to a U-bottom 96-well plate using Labcyte Echo. […] The cell suspension was dispensed to a. plate containing a test compound at 100 μL per well and incubated at 37° C. in a 5% carbon dioxide gas incubator. 96 hours later, 80 μL of CellTiter-Glo (Promega) was added to each well and fluorescence was measured.

Row | Compound | IC50 [1] [nM] | IC50 [2] [nM]
1 | CCCC[C@H]1C(=O)NC2(CCCC2)C(=O)N(C)[C@@H](C2CCCCC2)C(=O)N(C)[C@H](C(=O)N2CCCCC2)CC(=O)N(C)[C@@H](CC(C)C)C(=O)N[C@@H]([C@@H](C)CC)C(=O)N(C)CC(=O)N(C)CC(=O)N(C)[C@@H](CC2CCCCC2)C(=O)N(C)CC(=O)N[C@@H](CCc2ccc(C(F)(F)F)c(Cl)c2)C(=O)N1C [Compound 730] ([NMeL]I[Sar][Sar][NMeCha][Sar][hPhe(3-Cl-4-CF3)][NMeNle][Ac5c][NMeChg][NMeD]-Piperidide; lactam N-11) | 12 | > 500
2 | CC[C@H](C)[C@@H]1NC(=O)[C@H](C)N(C)C(=O)C[C@@H](C)NC(=O)[C@H](C2CCCC2)N(C)C(=O)C2(CCCC2)NC(=O)[C@@H]2CCCN2C(=O)[C@H](CCc2ccc(C(F)(F)F)c(Cl)c2)NC(=O)CN(C)C(=O)[C@H](Cc2ccccc2)N(C)C(=O)[C@@H]2CCCN2C(=O)CN(C)C1=O [Compound 1004] (cyclo([Ac5c][NMeGly(cPent)][d(β3hA)][NMeA]I[Sar]P[NMeF][Sar][hPhe(3-Cl-4-CF3)]P)) | 13 | > 500
3 | CC[C@H](C)[C@@H]1NC(=O)[C@H](CC2CCCC2)N(C)C(=O)C[C@@H](C(=O)N2CCCC2)N(C)C(=O)[C@H]([C@@H](C)CC)N(C)C(=O)C2(CCCC2)NC(=O)[C@@H]2CCCN2C(=O)[C@H](CCc2ccc(C(F)(F)F)c(Cl)c2)NC(=O)CN(C)C(=O)[C@H](Cc2ccc(C(F)(F)F)cc2)N(C)C(=O)[C@@H]2CCN2C(=O)[C@H](C)NC1=O [Compound 1320] ([NMeAla(cPent)]IA[Aze][NMePhe(4-CF3)][Sar][hPhe(3-Cl-4-CF3)]P[Ac5c][NMeI][NMeD]-Pyrrolidide; lactam N-11) | 1.4 | ≤ 20
4 | CC[C@H](C)[C@@H]1NC(=O)[C@H](CC(C)C)N(C)C(=O)C[C@@H](C(=O)N2CCCCC2)N(C)C(=O)[C@H](C(C)C)N(C)C(=O)C2(CCCC2)NC(=O)[C@@H]2CCCN2C(=O)[C@H](CCc2ccc(C(F)(F)F)c(Cl)c2)NC(=O)CN(C)C(=O)[C@H](CC2CCCCC2)N(C)C(=O)[C@@H]2CCN2C(=O)[C@@H]2CCN2C1=O [Compound 318] ([NMeL]I[Aze][Aze][NMeCha][Sar][hPhe(3-Cl-4-CF3)]P[Ac5c][NMeV][NMeD]-Piperidide; lactam N-11) | 19 | > 500
5 | CC[C@H](C)[C@@H]1NC(=O)[C@H](CC(C)C)N(C)C(=O)C[C@@H](C(=O)N2CCCCC2)N(C)C(=O)[C@H](C2CCCCC2)N(C)C(=O)C2(CCCC2)NC(=O)CN(C2CC3(C2)CC(F)(F)C3)C(=O)[C@H](CCc2ccc(C(F)(F)F)c(Cl)c2)NC(=O)CN(C)C(=O)[C@H](CC2CCCCC2)N(C)C(=O)CN(C)C(=O)CN(C)C1=O [Compound 2035, (11S,17S,26S,29S,33S,36S)-11-[2-[3-chloro-4-(trifluoromethyl)phenyl]ethyl]-36-cyclohexyl-17-(cyclohexylmethyl)-9-(2,2-difluorospiro[3.3]heptan-6-yl)-29-isobutyl-15,18,21,24,30,34,37-heptamethyl-26-[(1S)-1-methylpropyl]-33-(piperidine,-1-carbonyl)-6,9,12,15,18,21,24,27,30,34,37-undecazaspiro[4.33]octatriacontane-7,10,13,16,19,22,25,28,31,35,38-undecone] ([NMeL]I[Sar][Sar][NMeCha][Sar][hPhe(3-Cl-4-CF3)][X3][Ac5c][NMeChg][NMeD]-Piperidide; lactam N-11) | 24 | > 500
6 | CC[C@H](C)[C@@H]1NC(=O)[C@H](CC(C)C)N(C)C(=O)C[C@@H](C(=O)N(C)C)N(C)C(=O)[C@H]([C@@H](C)CC)N(C)C(=O)C2(CCCC2)NC(=O)[C@@H]2CCCN2C(=O)[C@H](CCc2ccc(C(F)(F)F)c(Cl)c2)NC(=O)CN(C)C(=O)[C@H](Cc2ccc(C)cc2)N(C)C(=O)[C@@H]2CCN2C(=O)[C@H](C)NC1=O [Compound 840] ([NMeL]IA[Aze][NMePhe(4-Me)][Sar][hPhe(3-Cl-4-CF3)]P[Ac5c][NMeI][NMeD]-NMe2; lactam N-11) | 1.2 | ≤ 20
7 | CCO[C@@H]1C[C@H]2C(=O)NC3(CCCC3)C(=O)N(C)[C@@H](C3CCCC3)C(=O)N(C)[C@H](C(=O)N3CCCC3)CC(=O)N(C)[C@@H](CC(C)C)C(=O)N[C@@H]([C@@H](C)CC)C(=O)N(C)CC(=O)N(C)CC(=O)N(C)[C@@H](CC3CCCCC3)C(=O)N(C)CC(=O)N[C@@H](CCc3ccc(C(F)(F)F)c(Cl)c3)C(=O)N2C1 [Compound 1370] ([NMeL]I[Sar][Sar][NMeCha][Sar][hPhe(3-Cl-4-CF3)][Hyp](Et)[Ac5c][NMeGly(cPent)][NMeD]-Pyrrolidide; lactam N-11) | 0.6 | ≤ 20
8 | CC[C@H](C)[C@@H]1NC(=O)[C@H](CC(C)C)N(C)C(=O)C[C@@H](C(=O)N2CCOCC2)N(C)C(=O)[C@H]([C@@H](C)CC)N(C)C(=O)C2(CCCC2)NC(=O)[C@@H]2CCCN2C(=O)[C@H](CCc2ccc(C(F)(F)F)c(Cl)c2)NC(=O)CN(C)C(=O)[C@H](Cc2ccc(C(F)(F)F)cc2)N(C)C(=O)[C@@H]2CCN2C(=O)[C@H](C)NC1=O [Compound 1293] ([NMeL]IA[Aze][NMePhe(4-CF3)][Sar][hPhe(3-Cl-4-CF3)]P[Ac5c][NMeI][NMeD]-Morpholide; lactam N-11) | 0.96 | ≤ 20

— patent US20240148821A1, “PHARMACEUTICAL USE OF CYCLIC PEPTIDE COMPOUND” (CHUGAI SEIYAKU KABUSHIKI KAISHA, priority 2021, published 2024)
